Positions count from the first letter of the chain named.
Legend:
UGT1A7*5 = target: T1, UGT1A7*5 (Homo sapiens, UniProt Q9HAW7, G115S); assay: SN-38 glucuronidation by microsomes of HEK293 cells expressing UGT1A7*5; type: in vitro ADME; design: key to Function (SN-38G formation versus *1 allele): High: no significant difference in activity compared to *1 allele.; Low: significantly lower SN-38G formation versus *1 allele
T1 construct: expressed in transfected cells
T1 sequence (Q9HAW7 26-530 G115S): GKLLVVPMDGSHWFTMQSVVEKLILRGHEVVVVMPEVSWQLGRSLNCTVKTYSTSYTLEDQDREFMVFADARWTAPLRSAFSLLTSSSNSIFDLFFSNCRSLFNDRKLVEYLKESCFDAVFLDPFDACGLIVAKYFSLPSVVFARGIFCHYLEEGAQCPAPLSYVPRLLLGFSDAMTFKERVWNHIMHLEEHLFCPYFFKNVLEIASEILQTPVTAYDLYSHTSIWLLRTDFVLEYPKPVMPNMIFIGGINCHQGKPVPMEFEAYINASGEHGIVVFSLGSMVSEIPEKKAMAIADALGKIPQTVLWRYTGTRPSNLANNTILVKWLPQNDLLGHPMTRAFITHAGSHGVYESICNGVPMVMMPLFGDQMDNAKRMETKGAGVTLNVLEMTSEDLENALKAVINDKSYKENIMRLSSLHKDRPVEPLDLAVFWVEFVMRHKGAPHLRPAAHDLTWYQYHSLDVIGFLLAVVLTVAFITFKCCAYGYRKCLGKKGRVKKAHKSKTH
Procedure: (§1) Western blot analyses of UGT1A7 and UGT1A9 variants expressed in HEK293 cells were performed on microsomal proteins (10 μg) separated on a 10% SDS-polyacrylamide gel. After transferring the proteins, the membranes were probed with an anti-UGT1A RC-71 polyclonal antibody and with an anti-calnexin antibody. The relative levels of UGT1A9 (a) and UGT1A7 proteins (b) were determined by semi-quantitative densitometric analysis of the Enhanced chemiluminescence (ECL) image. The in vitro SN-38 activity was assessed using microsomal fractions prepared from HEK293 cells expressing the *1 and variant UGT1A9 (c) and UGT1A7 (d) alleles and incubated with 5 μM of SN-38 as described in Materials and Methods.
(§2) For the determination of Vmax and Km.

UGT1A7*6 = target: T2, UGT1A7*6 (Homo sapiens, UniProt Q9HAW7, E139D); assay: SN-38 glucuronidation by microsomes of HEK293 cells expressing UGT1A7*6; type: in vitro ADME; design: key to Function (SN-38G formation versus *1 allele): High: no significant difference in activity compared to *1 allele.; Low: significantly lower SN-38G formation versus *1 allele
T2 construct: expressed in transfected cells
T2 sequence (Q9HAW7 26-530 E139D): T1 sequence (Q9HAW7 26-530 G115S) with S90G, E114D
Procedure: as §1, §2

Which results are given for `CCc1c2c(nc3ccc(O)cc13)-c1cc3c(c(=O)n1C2)COC(=O)[C@]3(O)CC` [SN-38, 7-ethyl-10-hydroxycamptothecin]?
SN-38 glucuronidating activity of the allele (in words) (UGT1A7*5): low; Function (SN-38G formation versus *1 allele) (UGT1A7*5; in vitro experiments): Low; lower rates of SN-38G formation compared to UGT1A7*1 (UGT1A7*5; range given for *5, *7 and *8 together): 38-76%; SN-38 glucuronidating activity of the allele (in words) (UGT1A7*6): highest; Function (SN-38G formation versus *1 allele) (UGT1A7*6; in vitro experiments): High

From patent US20060183119A1, “Method for determining predisposition to a physiological reaction in a patient” (UNIVERSITE LAVAL, priority 2002, published 2006)
